Measurements from patent EP0033503A2, “Medicaments with cytostatic activity and use of cyclic compounds, in which the heterocyclic N-ring atoms are substituted by several glycidyl groups, in pharmaceutical compositions” (Henkel Kommanditgesellschaft auf Aktien, priority 1980, dated 1981).
Where two headings read alike, the source gives them in different places.

Test system: Tumorart P 388 (Leukämie)
Experiment: Survival of mice bearing P 388 leukemia (NCI protocol 1200), T/C
Assay type: in vivo, Maus
Details: for response vs control in vivo at 25 mg/kg / response vs control in vivo at 50 mg/kg / response vs control in vivo at 100 mg/kg / response vs control in vivo at 200 mg/kg: Mus musculus; for Testergebnis in % T/C: repeat experiment; for Verlängerungsrate T/C: 9 injections; for T/C-Wert: unit not given
Excerpt: Die nachfolgenden Versuche wurden durchgeführt nach Testvorschriften des National Cancer Institute Bethesda, Maryland 200014, veröffentlicht in Cancer Chemotherapy Reports" Part. 3, September 1972, Vol. 3, Nr. 2. Als Wirksubstanz wurde 1,3-Diglycidyl-benzimidazolon des i vorstehenden Beispiels 1 verwendet. Die Substanz wurde als wäßrige, 1%ige Injektionslösung unmittelbar vor der Applikation frisch hergestellt.
Bei Mäusen wurde gemäß Protokoll 1200 (Seite 91, c.) die Tumorart P 388 (Leukämie) i.p. mit 10^6 Zellen/Maus gesetzt. Die unbehandelten Tiere hatten eine mittlere überlebensdauer von 9,9 Tagen.
Es wird der Wirkstoff appliziert. Der Wirkstoff wird dabei in 9.Gaben in unterschiedlichen Versuchsreihen einmal zu je 200 mg/kg und in einer anderen zu 100 mg/kg und in einer dritten Versuchsreihe zu je 50 mg/kg verabreicht. In beiden Fällen wird eine signifikante Verlängerung der Lebensdauer der behandelten Testtiere gegenüber der Kontrollgruppe der nicht behandelten Tiere erzielt. […] Bei der Testgruppe mit der Dosis von 100 mg/kg beträgt die durchschnittliche Lebenserwartung der Versuchstiere 18 Tage, T/C 181 %. Die Gruppe mit der Dosis 50 mg/kg hatte eine durchschnittliche Lebenserwartung von 15,3 Tagen, T/C 154 %. […]

[1] = P388, read-out: Testergebnis T/C (T/C-Wert), 25 mg/kg, second series, unit inferred
[2] = P388, read-out: Testergebnis T/C (T/C-Wert), 50 mg/kg per single dose, first series, unit inferred
[3] = P388, read-out: Testergebnis T/C (T/C-Wert), 50 mg/kg, second series, unit inferred
[4] = P388, read-out: Testergebnis T/C (T/C-Wert), 100 mg/kg per single dose, first series, unit inferred
[5] = P388, read-out: Testergebnis T/C (T/C-Wert), 100 mg/kg, second series, unit inferred
[6] = P388, read-out: Testergebnis T/C (T/C-Wert), 200 mg/kg per single dose, first series, unit inferred
[7] = P388, read-out: Testergebnis T/C (T/C-Wert), 200 mg/kg, second series, unit inferred
[8] = 100 mg/kg per single dose, 9 doses
[9] = 200 mg/kg per single dose, 9 doses
[10] = P388, 50 mg/kg per single dose, first series, unit inferred, read-out: Testergebnis T/C (T/C-Wert)
[11] = P388, 100 mg/kg per single dose, 9 doses, first test series, read-out: Verlängerungsrate T/C (Testergebnis in % T/C)
[12] = P388, 100 mg/kg per single dose, first series, unit inferred, read-out: Testergebnis T/C (T/C-Wert)
[13] = P388, 200 mg/kg per single dose, 9 doses, first test series, read-out: Verlängerungsrate T/C (Testergebnis in % T/C)
[14] = P388, 200 mg/kg per single dose, first series, unit inferred, read-out: Testergebnis T/C (T/C-Wert)
[15] = P388, 50 mg/kg per single dose, 9 doses, first test series, read-out: Verlängerungsrate T/C (Testergebnis in % T/C)
[16] = 50 mg/kg per single dose, 9 doses
[17] = 50 mg/kg per single dose, 9 doses, first test series
[18] = 100 mg/kg per single dose, 9 doses, first test series
[19] = 200 mg/kg per single dose, 9 doses, first test series
[20] = P388, read-out: Verlängerungsrate T/C (Testergebnis in % T/C), 50 mg/kg per single dose, 9 doses, first test series
[21] = P388, read-out: Verlängerungsrate T/C (Testergebnis in % T/C), 100 mg/kg per single dose, 9 doses, first test series

CC(C)CC1C(=O)N(CC2CO2)C(=O)N(CC2CO2)C1=O (centres unmarked) [Beispiel 11, 1,3-Diglycidyl-5-isobutylbarbitursäure]
response vs control in vivo at 25 mg/kg [1]: 129%
response vs control in vivo at 50 mg/kg [2]: 133%
response vs control in vivo at 50 mg/kg [3]: 158%
response vs control in vivo at 100 mg/kg [4]: 158%
response vs control in vivo at 100 mg/kg [5]: 184%
response vs control in vivo at 200 mg/kg [6]: 194%
response vs control in vivo at 200 mg/kg [7]: 252%

O=c1ccn(CC2CO2)c(=O)n1CC1CO1 (centres unmarked) [Beispiel 13, N,N'-Diglycidyluracil]
durchschnittliche Lebenserwartung der Versuchstiere [8]: 16,0 Tage
Testergebnis in % T/C (100 mg/kg): 152%
durchschnittliche Lebensdauer der Testgruppe [9]: 24 Tage
Testergebnis in % T/C (200 mg/kg): 198%
response vs control in vivo at 25 mg/kg (P388, 25 mg/kg, second series, unit inferred, read-out: Testergebnis T/C (T/C-Wert)): 114%
response vs control in vivo at 50 mg/kg [10]: 131%
response vs control in vivo at 50 mg/kg (P388, 50 mg/kg, second series, unit inferred, read-out: Testergebnis T/C (T/C-Wert)): 124%
response vs control in vivo at 100 mg/kg [11]: 153%
response vs control in vivo at 100 mg/kg [12]: 156%
response vs control in vivo at 100 mg/kg (P388, 100 mg/kg, second series, unit inferred, read-out: Testergebnis T/C (T/C-Wert)): 152%
response vs control in vivo at 200 mg/kg [13]: 230%
response vs control in vivo at 200 mg/kg [14]: 230%
response vs control in vivo at 200 mg/kg (P388, 200 mg/kg, second series, unit inferred, read-out: Testergebnis T/C (T/C-Wert)): 198%

O=c1c(Br)cn(CC2CO2)c(=O)n1CC1CO1 (centres unmarked) [Diglycidyl-5-bromuracil, N,N'-Diglycidyl-5-bromuracil]
response vs control in vivo at 50 mg/kg [10]: 173%
response vs control in vivo at 100 mg/kg [12]: 193%

CCC1(c2ccccc2)C(=O)N(CC2CO2)C(=O)N1CC1CO1 (centres unmarked) [R5 CH3-CH2-R6 C6H5-, Diglycidyl-5-phenyl-5-ethylhydantoin]
Testergebnis in % T/C (50 mg/kg): 111%
Testergebnis in % T/C (100 mg/kg): 146%
Testergebnis in % T/C (200 mg/kg): 188%
response vs control in vivo at 50 mg/kg [15]: 125%
response vs control in vivo at 100 mg/kg [11]: 156%
response vs control in vivo at 200 mg/kg [13]: 222%

CC1(C)C(=O)N(CC2CO2)C(=O)N1CN1C(=O)N(CC2CO2)C(=O)C1(C)C (centres unmarked) [[drawing] r20]
response vs control in vivo at 200 mg/kg [13]: 153%

CC1(c2ccccc2)C(=O)N(CC2CO2)C(=O)N1CC1CO1 (centres unmarked) [R5 CH3-R6 C6H5-, Diglycidyl-5-phenyl-5-methyl-hydantoin]
response vs control in vivo at 50 mg/kg [15]: 100%
response vs control in vivo at 100 mg/kg [11]: 160%
response vs control in vivo at 200 mg/kg [13]: 250%

O=c1ccn(CC2CO2)c(=O)n1Cn1c(=O)ccn(CC2CO2)c1=O (centres unmarked) [[drawing] the 18th table r17]
response vs control in vivo at 50 mg/kg [10]: 115%
response vs control in vivo at 100 mg/kg [12]: 139%
response vs control in vivo at 200 mg/kg [14]: 186%

Diglycidyl-butylglykoluril [Beispiel 4]
durchschnittliche Lebenserwartung der Versuchstiere [16]: 16,3 Tage
Verlängerungsrate T/C (Testergebnis in % T/C) [17]: 164%
durchschnittliche Lebenserwartung der Versuchstiere [8]: 19,3 Tage
Verlängerungsrate T/C (Testergebnis in % T/C) [18]: 194%
durchschnittliche Lebensdauer der Testgruppe [9]: 27 Tage
Verlängerungsrate T/C (Testergebnis in % T/C) [19]: 272%
Versuchstiere, die die Testdauer von 30 Tagen überleben (200 mg/kg per single dose, test group of 6 female mice): ein Versuchstier

O=c1c2c(ncn2CC2CO2)n(CC2CO2)c(=O)n1CC1CO1 (centres unmarked) [Beispiel 23, 1,3,7-Triglycidyl-xanthin]
response vs control in vivo at 50 mg/kg [20]: 147%
response vs control in vivo at 100 mg/kg [21]: 147%
response vs control in vivo at 200 mg/kg (P388, read-out: Verlängerungsrate T/C (Testergebnis in % T/C), 200 mg/kg per single dose, 9 doses, first test series): 173%

O=c1n(CC2CO2)c2ccccc2n1CC1CO1 (centres unmarked) [Beispiel 1, N,N'-Digylcidyl-Benzimidazolon]
Testergebnis in % T/C (25 mg/kg): 133%
durchschnittliche Lebenserwartung der Versuchstiere [16]: 15,3 Tage
Testergebnis in % T/C (50 mg/kg): 136%
durchschnittliche Lebenserwartung der Versuchstiere [8]: 18 Tage
Testergebnis in % T/C (100 mg/kg): 161%
durchschnittliche Lebensdauer der Testgruppe [9]: 20 Tage
Testergebnis in % T/C (200 mg/kg): 166%
response vs control in vivo at 50 mg/kg [15]: 154%
response vs control in vivo at 100 mg/kg [11]: 181%
response vs control in vivo at 200 mg/kg [13]: 202%

O=c1cnn(CC2CO2)c(=O)n1CC1CO1 (centres unmarked) [Beispiel 20, 2,4-Diglycidyl-2,3,4,5-tetrahydro-1,2,4-triazin-3,5-dion]
response vs control in vivo at 50 mg/kg [10]: 189%
response vs control in vivo at 100 mg/kg [12]: 228%

O=c1c2cc3c(=O)n(CC4CO4)c(=O)c3cc2c(=O)n1CC1CO1 (centres unmarked) [Beispiel 16, N,N^I-Diglycidylbenzoltetracarbonsäure-(1,2,4,5,)diimid]
Verlängerungsrate T/C (6,25 mg/kg per single dose): 156%
Verlängerungsrate T/C (12,5 mg/kg per single dose): 200%

O=c1n(-c2ccccc2)c(=O)n(CC2CO2)n1CC1CO1 (centres unmarked) [Beispiel 27, 1,2-Diglycidyl-4-phenylurazol]
T/C-Wert (25 mg/kg per single dose): 120
response vs control in vivo at 50 mg/kg [10]: 120%
response vs control in vivo at 100 mg/kg [12]: 150%
response vs control in vivo at 200 mg/kg [14]: 200%

O=C1N(CC2CO2)CCN1CC1CO1 (centres unmarked) [Beispiel 18 a), Diglycidylethylenharnstcff]
response vs control in vivo at 25 mg/kg [1]: 119%
response vs control in vivo at 50 mg/kg [2]: 130%
response vs control in vivo at 50 mg/kg [3]: 142%
response vs control in vivo at 100 mg/kg [4]: 155%
response vs control in vivo at 100 mg/kg [5]: 158%
response vs control in vivo at 200 mg/kg [6]: 206%
response vs control in vivo at 200 mg/kg [7]: 213%

O=c1n(CC2CO2)c2ccc(Cl)cc2n1CC1CO1 (centres unmarked) [R2 -H R3 -Cl, N,N'-Digylcidyl-5-chlor-benzimidazolon]
Testergebnis in % T/C (25 mg/kg): 156%
Testergebnis in % T/C (50 mg/kg): 181%
Testergebnis in % T/C (100 mg/kg): 92%
Testergebnis in % T/C (12,5 mg/kg): 145%
response vs control in vivo at 50 mg/kg [20]: 191%
response vs control in vivo at 100 mg/kg [21]: 234%

O=c1c(F)cn(CC2CO2)c(=O)n1CC1CO1 (centres unmarked) [Diglycidyl-5-floururacil, N,N'-Diglycidyl-5-fluoruracil]
response vs control in vivo at 50 mg/kg [10]: 179%
response vs control in vivo at 100 mg/kg [12]: 300%

CCCCCC(=O)c1ccc2c(c1)n(CC1CO1)c(=O)n2CC1CO1 (centres unmarked) [R2 -H R3 -C-C5H11 " O, N,N-Diglycidyl-5-caproyl-benzimidazolon]
response vs control in vivo at 50 mg/kg [15]: 167%
response vs control in vivo at 100 mg/kg [11]: 198%
response vs control in vivo at 200 mg/kg [13]: 130%

O=c1n(CC2CO2)c2cc(Cl)c(Cl)cc2n1CC1CO1 (centres unmarked) [R2 -Cl R3 -Cl, N,N-Diglycidyl-5,6-di-chlor-benzimidazolon]
response vs control in vivo at 50 mg/kg [15]: 158%
response vs control in vivo at 100 mg/kg [11]: 120%

CN1C(=O)N(CC2CO2)C2C1N(CC1CO1)C(=O)N2C (centres unmarked) [Beispiel 5, 3,6 Diglycidyl-1,4-dimethylglykoluril]
Verlängerungsrate T/C (Testergebnis in % T/C) [17]: 134%
durchschnittliche Lebenserwartung der Versuchstiere [8]: 15,8 Tage
Verlängerungsrate T/C (Testergebnis in % T/C) [18]: 157%
Verlängerungsrate T/C (Testergebnis in % T/C) [19]: 190%

CC1(C)C(=O)N(CC2CO2)C(=O)N1CC1CO1 (centres unmarked) [1,3-Diglycidyl-5,5-dimethylhydantoin]
Testergebnis in % T/C (25 mg/kg): 136%
durchschnittliche Lebenserwartung der Versuchstiere [16]: 15,7 Tage
Testergebnis in % T/C (50 mg/kg): 151%
durchschnittliche Lebenserwartung der Versuchstiere [8]: 22 Tage
Testergebnis in % T/C (100 mg/kg): 239%
response vs control in vivo at 50 mg/kg [15]: 158%
response vs control in vivo at 100 mg/kg [11]: 222%
erhöhte Lebenserwartung gegenüber einer Kontrollgruppe nicht behandelter Versuchstiere (animal test at 100 mg/kg and 50 mg/kg): ≤ 220%

COc1ccc2c(c1)n(CC1CO1)c(=O)n2CC1CO1 (centres unmarked) [R2 -H R3 -O-CH3, N,N-Diglycidyl-5-methoxy-benzimidazolon]
response vs control in vivo at 50 mg/kg [15]: 175%
response vs control in vivo at 100 mg/kg [11]: 225%

O=c1c(I)cn(CC2CO2)c(=O)n1CC1CO1 (centres unmarked) [Diglycidyl-5-joduracil, N,N'-Diglycidyl-5-ioduracil]
response vs control in vivo at 50 mg/kg [10]: 124%
response vs control in vivo at 100 mg/kg [12]: 166%
response vs control in vivo at 200 mg/kg [14]: 189%

O=c1n(CC2CO2)c(=O)n(CC2CO2)n1CC1CO1 (centres unmarked) [Beispiel 26, 1,2,4-Triglycidylurazol]
T/C-Wert (25 mg/kg per single dose): >260
T/C-Wert (6,25 mg/kg per single dose): 180
T/C-Wert (12,5 mg/kg per single dose): 230
response vs control in vivo at 50 mg/kg [10]: 298%
